Usually ED50 stands for the midpoint of the dose-response relation.

The subject of one assay is Male Sprague-Dawley rats. Kind of assay: Low-intensity tail flick test (rat). It is filed as in vivo. Conditions: for ED50: po, peroral, at time of maximum efficacy. As for the experimental part:
Method II. Low-Intensity Tail Flick Test (Rat)
In the low-intensity tail flick test, the determination of the antinociceptive effect of the compounds according to the invention towards an acute noxious thermal stimulus is carried out by measuring the withdrawal reflex of the rat tail (tail flick) in response to a radiant heat beam (analgesia meter; model 2011 of the company Rhema Labortechnik, Hofheim, Germany) according to the method described by D'Amour and Smith (J. Pharm. Exp. Ther. 72, 74 79 (1941). To this end, the rats were placed in a plexiglas restrainer, and a low-intensity radiant heat beam (48° C.) was focused onto the dorsal surface of the tail root. The stimulus intensity was adjusted to result in a mean pre-drug control withdrawal latency of about 7 s, thus also allowing a supraspinal modulation of the spinally mediated acute nociceptive reflex. A cutoff time of 30 s was applied to avoid tissue damage. Male Sprague-Dawley rats (Janvier, Le Genest St. Isle, Frankreich) with weights of 200-250 g were used. 10 rats were used per group. Before administration of a compound according to the invention, the animals were pre-tested twice in the course of five minutes and the mean of these measurements was calculated as the pre-test mean. The antinociceptive effect was determined at 20, 40 and 60 min after peroral compound administration. The antinociceptive effect was calculated based on the increase in the tail withdrawal latency according to the following formula and is expressed as percentage of the maximum possible effect (MPE [%]): MPE=[(T1−T0)/(T2−T0)]*100
In this, T0 is the control latency time before and T1 the latency time after administration of the compound, T2 is the cutoff time and MPE is the maximum possible effect. Employing variant analysis (repeated measures ANOVA) allowed testing of statistically significant differences between the compounds according to the invention and the vehicle group. The significance level was set to p≦0.05. To determine the dose dependency, the particular compound according to the invention was administered in 3-5 logarithmically increasing doses, including a threshold dose and a maximum effective dose, and the ED50 values were determined with the aid of regression analysis. The ED50 calculation was performed at the time of maximum efficacy (usually 20 min after administration of the compounds).
(In general: In hot-plate and tail-flick tests a longer latency is read as antinociception.)

In the next assay the target is T1, KCNQ2/3 channels (Homo sapiens, UniProt O43525+O43526).
T1 construct: expressed in transfected cells; host or cells: CHO-K1
The assay can be described thus: Fluorescence assay using a voltage sensitive dye (fluorimetry). It is filed as cell-based. The following applies: CHO-K1 cells expressing KCNQ2/3; for Emax: plateau effect relative to saturated Retigabine (50 μM), read-out: Fluorimetry % efficacy (retigabine = 100%); for EC50: voltage-sensitive dye, KCl depolarization, read-out: Fluorimetry EC50/IC50. An excerpt:
Method I. Fluorescence Assay Using a Voltage Sensitive Dye (Fluorimetry)
The modulation of the KCNQ opening state (and consequently the voltage potential of a cell) by test compounds such as compounds according to the present invention results in an increased or reduced amount of a voltage-sensitive dye in the cytoplasm of the cells tested. These voltage-sensitive dyes are fluorescent dyes and, therefore, are forming the link between cell potential influenced by KCNQ modulation and fluorescence intensity. A KCNQ agonist leads to an opening of the channel, potassium and dye efflux, a following hyperpolarization and a reduction of the inner fluorescence intensity in a kinetic protocol. If applying an ion jump by KCl depolarization, KCNQ agonists increase the ΔF/F value. An antagonist performs vice versa, respectively.
The ‘fluorimetry EC50’ is the half maximum effective concentration (EC50), where the concentration of a drug/compound induces a response halfway between the baseline and maximum plateau effect. In other words, said value represents the concentration of a compound, where 50% of its maximal effect in the fluorimetric assay is observed if the substance concentration is graphed against the corresponding ΔF/F values (for which the calculation method is described below). Therefore, ‘fluorimetry EC50’ is a measure for the compound potency. The compound efficacy is mirrored by ‘fluorimetry % efficacy’ (‘% Efficacy’) and refers to the maximum response achievable by the test compound, i.e. the plateau effect. This drug's plateau effect is related to the plateau effect, which can be achieved by applying a saturated concentration of a reference compound, e.g. Retigabine (50 μM), in independent wells of the same experimental plate or series. A compound showing 100% efficacy is as efficacious as the reference compound (Retigabine) with a saturated concentration.
[…] CHO-K1 cells expressing KCNQ2/3 channels are cultivated adherently at 37° C., 5% CO2 and 95% humidity in cell culture bottles (e.g. 80 cm^2 TC flasks, Nunc) with DMEM-high glucose (Sigma Aldrich, D7777) including 10% FCS (PAN Biotech, e.g. 3302-P270521) or alternatively MEM Alpha Medium (1×, liquid, Invitrogen, #22571), 10% fetal calf serum (FCS) (Invitrogen, #10270-106, heat-inactivated) and the necessary selection antibiotics.
Before being sown out for the measurements, the cells are washed with 1× DPBS buffer Ca^2+/Mg^2+-free (e.g. Invitrogen, #14190-094) and detached from the bottom of the culture vessel by using Accutase (PAA Laboratories, #L11-007) (incubation with Accutase for 15 min at 37° C.). The cell number is determined using a CASY™ cell counter (TCC, Schärfe System). Depending on the optimal density for each individual cell line, 20,000-30,000 cells/well/100 μl are seeded onto 96-well Corning™ CellBIND™ assay plates (Flat Clear Bottom Black Polystyrene Microplates, #3340). Freshly seeded cells are then left to settle for one hour at room temperature, followed by incubation for 24 hours at 37° C., 5% CO2 and 95% humidity.
The voltage-sensitive fluorescent dye from the Membrane Potential Assay Kit (Red™ Bulk format part R8123 for FLIPR, MDS Analytical Technologies™) is prepared by dissolving the contents of one vessel Membrane Potential Assay Kit Red Component A in 200 ml of extracellular buffer (ES buffer, 120 mM NaCl, 1 mM KCl, 10 mM HEPES, 2 mM CaCl2, 2 mM MgCl2, 10 mM glucose; pH 7.4). After removal of the nutrient medium, the cells are washed once with 200 μl of ES buffer, then loaded for 45 min at room temperature in 100 μl of dye solution in the dark.
Fluorescence measurements are carried out in a BMG Labtech FLUOstar™, BMG Labtech NOVOstar™ or BMG Labtech POLARstar™ instrument (525 nm excitation, 560 nm emission, Bottom Read mode). […]

As for `Cc1cc(N2CCOCC2)cc(C(C)C)c1C(=O)NCc1ccc(Cl)cc1` [Example 14, N-[(4-Chlorophenyl)-methyl]-2-isopropyl-6-methyl-4-morpholin-4-yl-benzamide], in the assay with Male Sprague-Dawley rats (dose 10 mg/kg), the “Low intensity tail flick, rat, peroral, MPE (dose)” value worked out at 92%. The compound further came in with an ED50 in the assay on Male Sprague-Dawley rats of 3.6 mg/kg. Further, at KCNQ2/3 channels, the Emax amounted to 175% and the EC50 came to 136 nM.
In the case of `Cc1cc(N2CCOCC2)cc(C(C)C)c1C(=O)NCc1ccc(F)cc1` [Example 17, N-[(4-Fluorophenyl)methyl]-2-isopropyl-6-methyl-4-morpholin-4-yl-benzamide], in the assay with Male Sprague-Dawley rats (dose 14.7 mg/kg), the “Low intensity tail flick, rat, peroral, MPE (dose)” value came to 100%. Further, the ED50 in the assay with Male Sprague-Dawley rats turned out to be 2.5 mg/kg. On KCNQ2/3 channels, the Emax is 179% and the EC50 came to 663 nM.
In the case of `Cc1cc(N2CCOCC2)cc(C2CC2)c1C(=O)NCC[C@H](O)C(C)(C)C` [Example 29, 2-Cyclopropyl-N-[(3S)-3-hydroxy-4,4-dimethyl-pentyl]-6-methyl-4-morpholin-4-yl-benzamide], at KCNQ2/3 channels, the Emax was found to be 195% and the EC50 turned out to be 1810 nM.
For `Cc1cc(N2CCOCC2)cc(C(C)C)c1C(=O)NCC[C@@H](O)C(C)(C)C` [Example 30, N-[(3R)-3-Hydroxy-4,4-dimethyl-pentyl]-2-isopropyl-6-methyl-4-morpholin-4-yl-benzamide], in that order: 212% and 3100 nM.
For `Cc1cc(N2CCOCC2)cc(C(C)C)c1C(=O)NCC[C@H](O)C(C)(C)C` [Example 31, N-[(3S)-3-Hydroxy-4,4-dimethyl-pentyl]-2-isopropyl-6-methyl-4-morpholin-4-yl-benzamide], in that order: 230% and 416 nM.
For `Cc1cc(N2CCOCC2)cc(C2CC2)c1C(=O)NCC(O)CC(C)(C)C` (stereo not shown) [Example 32, 2-Cyclopropyl-N-(2-hydroxy-4,4-dimethyl-pentyl)-6-methyl-4-morpholin-4-yl-benzamide], in that order: 159% and 3810 nM.
Consider `Cc1cc(N2CCOCC2)cc(C(C)C)c1C(=O)NCC(O)CC(C)(C)C` (stereo not shown) [Example 33, N-(2-Hydroxy-4,4-dimethyl-pentyl)-2-isopropyl-6-methyl-4-morpholin-4-yl-benzamide], for which, on KCNQ2/3 channels, the Emax was 216% and the EC50 was found to be 1370 nM.
Taken in the same sequence, the figures for `Cc1cc(N2CCOCC2)cc(C(C)C)c1C(=O)NCc1ccc(Cl)cn1` [Example 34, N-[(5-Chloro-pyridin-2-yl)-methyl]-2-isopropyl-6-methyl-4-morpholin-4-yl-benzamide] were 156% and 3610 nM.
Taken in the same sequence, the figures for `Cc1cc(N2CCOCC2)cc(C(C)C)c1C(=O)NCc1ccc(C(F)(F)F)cn1` [Example 35, 2-Isopropyl-6-methyl-4-morpholin-4-yl-N-[[5-(trifluoromethyl)-pyridin-2-yl]-methyl]-benzamide] were 134% and 3070 nM.
Taken in the same sequence, the figures for `Cc1cc(N2CCOCC2)cc(C2CC2)c1C(=O)NCc1ccc(C(F)(F)F)cn1` [Example 36, 2-Cyclopropyl-6-methyl-4-morpholin-4-yl-N-[[5-(trifluoromethyl)-pyridin-2-yl]-methyl]-benzamide] were 89% and 5260 nM.
On to `Cc1cc(N2CCOCC2)cc(C2CCOC2)c1C(=O)NCc1ccc(Cl)cc1` (stereo not shown) [Example 37, N-[(4-Chlorophenyl)-methyl]-2-methyl-4-morpholin-4-yl-6-tetrahydro-furan-3-yl-benzamide], for which, on KCNQ2/3 channels, the Emax came out at 166% and the EC50 was 1690 nM.
Consider `Cc1cc(N2CCOCC2)cc(N2CC[C@@H](F)C2)c1C(=O)NCc1ccc(Cl)cc1` [Example 38, N-[(4-Chlorophenyl)-methyl]-2-[(3R)-3-fluoro-pyrrolidin-1-yl]-6-methyl-4-morpholin-4-yl-benzamide], for which, at KCNQ2/3 channels, the Emax was 167% and the EC50 stood at 748 nM.
As for `CC(C)c1cc(N2CCOCC2)cc(F)c1C(=O)NCc1ccc(Cl)cc1` [Example 39, N-[(4-Chlorophenyl)-methyl]-2-fluoro-6-isopropyl-4-morpholin-4-yl-benzamide], on KCNQ2/3 channels, the Emax came out at 196% and the EC50 is 217 nM.
Taken in the same sequence, the figures for `COc1cc(N2CCOCC2)cc(C(C)C)c1C(=O)NCc1ccc(Cl)cc1` [Example 40, N-[(4-Chlorophenyl)-methyl]-2-isopropyl-6-methoxy-4-morpholin-4-yl-benzamide] were 196% and 165 nM.
Regarding `CCc1cc(N2CCOCC2)cc(CC)c1C(=O)NCc1ccc(Cl)cc1` [Example 41, N-[(4-Chlorophenyl)-methyl]-2,6-diethyl-4-morpholin-4-yl-benzamide], at KCNQ2/3 channels, the Emax was 181% and the EC50 was found to be 506 nM.

The record behind these values is patent US9108936B2, “Substituted 4-aminobenzamides as KCNQ2/3 modulators” (GRUENENTHAL GMBH, priority 2012, dated 2015).
